In PubChem BioAssay (NCI):
Values joined by “and” are separate entries in the source; they are usually repeats but may differ in a detail not shown here. Equal entries are not always repeated.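 Method: 48-hour compound exposure of cells in 96-well plates, five concentrations, linear interpolation of endpoints. Here, GI50 denotes the concentration required for 50% inhibition of growth. TGI denotes the concentration required for complete inhibition of growth.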 Numbered stars: 1 amine (or outer) side, 2 acyl side, 3 side chain; on linkers, the order of the positions; unused ones are H or OH. Bridge positions count the residues as written; N and C are the ends. Square brackets hold non-standard residues; d marks the D form. Peptide text beside a SMILES is read from it. I, II: the chains in the order shown. Actinocin(9to1) = Cc1c2oc3c(C)ccc(C(=O)[*:1])c3nc-2c(C(=O)[*:2])c(N)c1=O; aThr = C[C@H](O)[C@H](N)C(=O)O; NMeV = CN[C@H](C(=O)O)C(C)C; Sar = CNCC(=O)O

How the values were obtained:
Assay in all cases: NCI tumour cell line growth inhibition, 48 h
MCF7 breast = system: MCF7 breast
XF 498 CNS = system: XF 498 CNS
DLD-1 colon = system: DLD-1 colon
P388/ADR leukemia = system: P388/ADR leukemia
DMS 114 small cell lung = system: DMS 114 small cell lung
DMS 273 small cell lung = system: DMS 273 small cell lung
LXFL 529 NSCLC = system: LXFL 529 NSCLC
M19-MEL melanoma = system: M19-MEL melanoma
HS 578T breast = system: HS 578T breast
KM20L2 colon = system: KM20L2 colon
HOP-18 NSCLC = system: HOP-18 NSCLC
SNB-75 CNS = system: SNB-75 CNS
T-47D breast = system: T-47D breast
SN12K1 renal = system: SN12K1 renal
SNB-78 CNS = system: SNB-78 CNS
P388 leukemia = system: P388 leukemia

Compound: Cc1c2oc3c(C)ccc(C(=O)N[C@@H]4C(=O)N[C@H](C(C)C)C(=O)N5CCC[C@H]5C(=O)N(C)CC(=O)N(C)[C@@H](C(C)C)C(=O)O[C@H]4C)c3nc-2c(C(=O)N[C@@H]2C(=O)N[C@H](C(C)C)C(=O)N3CCC[C@H]3C(=O)N(C)CC(=O)N(C)[C@@H](C(C)C)C(=O)O[C@H]2C)c(N)c1=O (I: [aThr][dV]P[Sar][NMeV] / II: [aThr][dV]P[Sar][NMeV]; ester I:1-I:C, II:1-II:C; linker I:N-II:N via Actinocin(9to1))
- TGI (MCF7 breast): 69.3 nM and 250 nM and 197 nM
- GI50 (XF 498 CNS): 0.444 nM
- TGI (XF 498 CNS): 12.8 nM and 3.03 nM
- GI50 (DLD-1 colon): 1.9 nM
- TGI (DLD-1 colon): 208 nM and 1200 nM
- TGI (P388/ADR leukemia): 171 nM
- GI50 (DMS 114 small cell lung): 1.01 nM
- TGI (DMS 114 small cell lung): 18.7 nM and 12.2 nM
- GI50 (DMS 273 small cell lung): 0.783 nM
- TGI (DMS 273 small cell lung): 26 nM and 17.8 nM
- GI50 (LXFL 529 NSCLC): 1.39 nM and 0.348 nM
- TGI (LXFL 529 NSCLC): 70 nM and 320 nM
- GI50 (M19-MEL melanoma): 0.496 nM
- TGI (M19-MEL melanoma): 19.4 nM and 12.7 nM
- TGI (HS 578T breast): 47.7 nM [middle of 4 runs]
- GI50 (KM20L2 colon): 0.964 nM
- TGI (KM20L2 colon): 106 nM and 85.9 nM
- GI50 (HOP-18 NSCLC): 9.03 nM
- TGI (HOP-18 NSCLC): 123 nM and 125 nM
- TGI (SNB-75 CNS): 24.6 nM [middle of 6 runs]
- TGI (T-47D breast): 34.3 nM [middle of 4 runs]
- TGI (SN12K1 renal): 148 nM
- GI50 (SNB-78 CNS): 4.47 nM
- TGI (SNB-78 CNS): 117 nM and 315 nM
- TGI (P388 leukemia): 15.4 nM
